Experimental findings from patent US8962621B2 (Shanghai Institute of Pharmaceutical Industry, priority 2010, dated 2015) are described below.

The structures appear in SMILES notation.

Data set [1] relates to Histidine auxotroph mutant of mouse salmonella TA97, TA98, TA100 and TA102. The class given is cell-based. The source says: 5. […] 6. Bacterial Reverse Mutation Test of Compounds VI-1 VI-2 and VI16 • Strains: Histidine auxotroph mutant of mouse salmonella TA97, TA98, TA100 and TA102. • Test method: The one reported in Maron DM et al: (1983) Mutay Res. 113, 173-216 is used. • Results: The test consists of two parts, i.e., −S9 and +S9. […] No bacteriostatic actions to all the strains are observed at all the other dosages, and the growth background is good.

Data set [2] in a line: Acute toxicity experiment (single oral gavage). The conditions noted are these: mouse, in vivo; mice, single oral gavage; Bliss method; read-out: LD50.
The subject of a further data set is male Kunming mice. Kind of data set: Mice forced swimming test. The conditions noted are these: for effect in the forced swimming test (in words): 20 mg/kg; for IT (sec), immobility time: 20.0 mg/kg single intragastric administration, 1 h before test, last 4 min of 6 min, n=12. The class given is in vivo. The method, then: Through intragastric administration, 10 mL·kg^−1 of each sample (physiological saline for the blank control group) is administrated. The mice are pre-screened for swimming one day before the actual test. The mouse is placed into water (25° C., 10 cm deep) in a glass tank (height 20 cm, diameter 14 cm) and forced to swim for 6 min. Those who stop swimming at around 70-160 s are chosen for the actual test which starts 24 h later. After 1 h of the administration, the forced swimming test is performed by placing the animal into the above-mentioned environment to swim for 6 min. The accumulative immobility time for the last 4 min is recorded. Data is statistically analyzed with t-test.

The next data set concerns the target 5-HT Transporter (hSERT) (Homo sapiens, UniProt P31645). Kind of data set: Inhibition of [3H]-5-HT reuptake in HEK 293 cells stably expressing hSERT.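 As to all read-outs here: compound preincubated 10 min at 30 °C, then 10 min uptake, filter-bound radioactivity counted by scintillation, inhibition relative to total (blank) minus non-specific (positive control) uptake.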 The following applies: for inhibition at 10 µM: HEK293, read-out: 5-HT Reuptake Inhibition; for 5-HT Reuptake Inhibition: 10 μmol/L final concentration (b487 prints 0.1 mmol/L), HEK 293 hSERT cells, [3H]-5-HT.
The next data set has as its target NA Transporter (hNAT) (Homo sapiens, UniProt P23975). Description: Inhibition of [3H]-NA reuptake in HEK 293 cells stably expressing hNAT. The conditions noted are these: for inhibition at 10 µM: HEK293, read-out: NA Reuptake Inhibition; for NA Reuptake Inhibition: 10 μmol/L final concentration (b487 prints 0.1 mmol/L), HEK 293 hNAT cells, [3H]-NA.
The next data set concerns the target DA Transporter (hDAT) (Homo sapiens, UniProt Q01959). Kind of data set: Inhibition of [3H]-DA reuptake in HEK 293 cells stably expressing hDAT. The conditions noted are these: for inhibition at 10 µM: HEK293, read-out: DA Reuptake Inhibition; for DA Reuptake Inhibition: 10 μmol/L final concentration (b487 prints 0.1 mmol/L), HEK 293 hDAT cells, [3H]-DA.
Another data set relates to male ICR mice. Description: Mice tail suspension test. The class given is in vivo. The following applies: for IT (sec), immobility time: 20.0 mg/kg single intragastric administration, 1 h before test, 4 min observation, n=12; for Improvement (%): 20.0 mg/kg single oral administration, versus blank control IT; for effect on immobility time in the tail suspension test (in words): efficacy similar to Venlafaxine. The method, then:
Through intragastric administration, 10 mL·kg^−1 of each sample (physiological saline for the blank control group) is administrated. After 1 h of the treatment, the mouse is held with a medical tape at a position around 2 cm from the tip of its tail and hung upside-down in the suspension cage with its head 5 cm away from the bottom of the cage. The observation starts right after the mouse is suspended for 2 min and continues for 4 min. The time during which the mouse is immobile (no struggling or only tiny movements of its body/limbs) in this 4 min is accumulated (IT, immobility time). The percentage of the improvement is calculated according to the equation: Improvement %=[IT (blank control group)−IT (compound treatment group)]/IT (blank control group)×100%

For a further data set, the system named is rats. Description: Learned helplessness experiment (conditioned avoidance test). Type of data set: in vivo. The source says: (1) Principles • This is an animal model of depression. In this experiment, an animal is placed under conditions with aversive stimulus which it can't escape. […] This is a well recognized depression state, in which the level of catecholamine in the animal's brain is reduced. An antidepressant can act against this state. The learned helplessness model is sensitive to a variety of antidepressants used in a sub-long period (3-7 d), including tricyclic antidepressants, monoamine oxidase inhibitors, monoamine reuptake inhibitors and atypical antidepressants.
(2) Test Method • The animals are grouped. The pre-shock animals are generated the first day by performing inescapable electric shock. The pre-shock animals are given foot electric shock (0.8 mA, 15 s) for 60 times (1 min interval). Rats in the control group are only put into the cage for a same period of time but without any electric shock. • The administration of drugs starts the next day and lasts for one week. […] The conditioned avoidance test is conducted 24 h after the last administration to determine the number of times of successful avoidance and the incubation period of escape.

[3] abbreviates: 30 mg/kg, one week, test 24 h after last administration, n = 10.
Setting [4] is: Venlafaxine 30 mg/kg, VI-2 at 3 doses (20, 10, 5 mg/kg).

DA Transporter (hDAT), sequence (Q01959 whole entry): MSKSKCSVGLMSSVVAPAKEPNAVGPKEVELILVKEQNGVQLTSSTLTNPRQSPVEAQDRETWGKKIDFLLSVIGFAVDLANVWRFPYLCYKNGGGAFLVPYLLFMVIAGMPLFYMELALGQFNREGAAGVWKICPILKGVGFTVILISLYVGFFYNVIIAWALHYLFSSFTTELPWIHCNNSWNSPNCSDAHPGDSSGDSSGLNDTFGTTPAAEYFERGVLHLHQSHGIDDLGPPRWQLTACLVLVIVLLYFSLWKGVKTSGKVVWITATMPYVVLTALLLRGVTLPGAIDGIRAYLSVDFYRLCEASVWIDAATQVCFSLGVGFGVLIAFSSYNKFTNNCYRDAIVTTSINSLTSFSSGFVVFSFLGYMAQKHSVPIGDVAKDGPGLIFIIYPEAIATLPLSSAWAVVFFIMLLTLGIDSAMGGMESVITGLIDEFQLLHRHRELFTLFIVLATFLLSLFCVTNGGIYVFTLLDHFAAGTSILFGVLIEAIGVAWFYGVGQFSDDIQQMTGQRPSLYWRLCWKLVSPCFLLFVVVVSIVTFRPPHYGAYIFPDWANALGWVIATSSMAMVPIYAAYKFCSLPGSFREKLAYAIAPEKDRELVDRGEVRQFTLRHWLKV
5-HT Transporter (hSERT), sequence (P31645 whole entry): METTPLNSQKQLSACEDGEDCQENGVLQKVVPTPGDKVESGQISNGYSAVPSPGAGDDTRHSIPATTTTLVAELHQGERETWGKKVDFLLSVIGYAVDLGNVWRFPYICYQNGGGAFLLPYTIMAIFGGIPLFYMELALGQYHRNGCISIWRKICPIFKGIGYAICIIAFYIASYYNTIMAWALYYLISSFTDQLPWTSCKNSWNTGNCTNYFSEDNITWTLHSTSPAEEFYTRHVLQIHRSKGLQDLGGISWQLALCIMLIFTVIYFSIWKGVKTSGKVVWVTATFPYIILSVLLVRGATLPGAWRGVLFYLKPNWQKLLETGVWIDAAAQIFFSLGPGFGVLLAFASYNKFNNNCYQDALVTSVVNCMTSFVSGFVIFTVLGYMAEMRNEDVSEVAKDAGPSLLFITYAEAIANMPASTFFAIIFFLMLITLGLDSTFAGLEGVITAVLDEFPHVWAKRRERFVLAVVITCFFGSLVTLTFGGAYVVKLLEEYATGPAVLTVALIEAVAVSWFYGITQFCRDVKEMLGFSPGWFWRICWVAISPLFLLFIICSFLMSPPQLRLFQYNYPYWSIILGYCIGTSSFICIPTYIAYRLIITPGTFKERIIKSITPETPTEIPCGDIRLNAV
NA Transporter (hNAT), sequence (P23975 whole entry): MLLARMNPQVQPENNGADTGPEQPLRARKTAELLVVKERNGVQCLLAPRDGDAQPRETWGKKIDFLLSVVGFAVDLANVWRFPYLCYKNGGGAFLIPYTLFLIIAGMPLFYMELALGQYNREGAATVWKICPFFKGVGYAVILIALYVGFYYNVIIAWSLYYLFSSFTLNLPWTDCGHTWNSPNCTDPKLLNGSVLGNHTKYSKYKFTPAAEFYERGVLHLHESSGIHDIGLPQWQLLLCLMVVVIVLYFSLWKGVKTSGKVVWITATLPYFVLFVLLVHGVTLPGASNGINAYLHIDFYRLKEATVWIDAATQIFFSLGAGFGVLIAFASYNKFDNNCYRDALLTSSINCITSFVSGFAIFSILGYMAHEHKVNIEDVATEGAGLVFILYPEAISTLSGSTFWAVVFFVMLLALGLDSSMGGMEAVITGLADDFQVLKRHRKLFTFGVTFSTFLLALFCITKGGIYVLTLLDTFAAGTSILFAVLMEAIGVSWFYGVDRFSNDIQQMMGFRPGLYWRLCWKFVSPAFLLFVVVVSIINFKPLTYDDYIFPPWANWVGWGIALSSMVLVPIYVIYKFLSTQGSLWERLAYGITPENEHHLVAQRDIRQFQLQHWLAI

A word on the LD50: it is the dose expected to kill half of the subjects tested. The inhibition is the percentage by which the read-out fell short of the control. Regarding `CN(C)CCC(c1csc2ccccc12)N1CCCCC1` (stereo not drawn), in data set [1] (5000 μg per dish, TA98 without S9 and TA97 with S9, none at other dosages), the bacteriostatic action entry is “bacteriostatic action is showed”. Further, the Ames test result in data set [1] (TA97, TA98, TA100, TA102, with or without S9, all test dosages) is “negative”. In addition, the 50% lethal dose (LD50) in data set [2] was determined as 870 mg/kg. In the data set on male Kunming mice, the “effect in the forced swimming test (in words)” value is “significant reduction in the immobility time” and the “IT (sec), immobility time” value stood at 62.1 ± 42.9 s. Also, at 5-HT Transporter (hSERT), the “inhibition effect towards the reuptake of 5-HT (in words)” value (“inhibition effect towards the reuptake” for short) was “relatively strong inhibition effect” and the inhibition at 10 µM was found to be 90.5%. Besides, the inhibition at 10 µM on NA Transporter (hNAT) turned out to be 92.1%. Further, the inhibition at 10 µM at DA Transporter (hDAT) was 80.2%. Moreover, in the data set with male ICR mice, the “IT (sec), immobility time” value amounted to 45.21 ± 28.19 s and the “Improvement (%)” value was found to be 54.42%. For the same molecule, the “effect on immobility time in the tail suspension test (in words)” value (“effect on immobility time” for short) with male ICR mice (20 mg/kg) is listed as “significant reduction in the immobility time”.

Consider `Clc1ccc(C(CCN2CCOCC2)N2CCCC2)cc1Cl` (stereo not drawn) [VI-6], for which, in the data set on male Kunming mice, the “effect in the forced swimming test (in words)” value is “significant difference from that of the blank control” and the “IT (sec), immobility time” value was determined as 79.3 ± 53.1 s. In addition, the “5-HT Reuptake Inhibition” value at 5-HT Transporter (hSERT) came to 106.3%. Further, the “NA Reuptake Inhibition” value on NA Transporter (hNAT) is listed as 101.4%. In addition, the “DA Reuptake Inhibition” value on DA Transporter (hDAT) is given as 106.4%. In the data set with male ICR mice, the “IT (sec), immobility time” value is 25.68 ± 14.25 s and the “Improvement (%)” value turned out to be 74.11%. In the data set with male ICR mice (20 mg/kg), the “effect on immobility time” value was “significant reduction in the immobility time”.

Regarding `CN(C)CCC(c1csc2ccccc12)N1CCCC1` (stereo not drawn) [VI-13, N,N-dimethyl-3-(benzothiophen-3-yl)-3-(pyrrolidin-1-yl)-propylamine], in the data set with male Kunming mice, the “effect in the forced swimming test (in words)” value is on record as “significant reduction in the immobility time”. Besides, the results for the “IT (sec), immobility time” value in the data set with male Kunming mice and in the data set on male ICR mice were 44.9 ± 53.7 s and 38.29 ± 23.76 s, respectively. Besides, the figures for the inhibition at 10 µM on 5-HT Transporter (hSERT), on NA Transporter (hNAT) and at DA Transporter (hDAT) were 96.6%, 98.8% and 96.9%, respectively. Further, in the data set with male ICR mice, the “Improvement (%)” value is recorded as 61.40%. Further, the “effect on immobility time” value with male ICR mice (20 mg/kg) is recorded as “significant reduction in the immobility time”.

Take `CN(C)CCC(c1cc2ccccc2s1)N1CCCC1` (stereo not drawn) [VI-19, N,N-dimethyl-3-(benzothiophen-2-yl)-3-(pyrrolidin-1-yl)-propylamine]: the “effect in the forced swimming test (in words)” value with male Kunming mice was “significant reduction in the immobility time”. For the same molecule, the “IT (sec), immobility time” value amounted to 60.7 ± 26.7 s in the data set on male Kunming mice and 50.28 ± 21.30 s in the data set on male ICR mice. In addition, the inhibition at 10 µM at 5-HT Transporter (hSERT) is 95.3%; on NA Transporter (hNAT), 91.2%; at DA Transporter (hDAT), 75.6%. Moreover, in the data set on male ICR mice, the “Improvement (%)” value worked out at 49.31%. The “effect on immobility time” value in the data set on male ICR mice (20 mg/kg) is listed as “significant reduction in the immobility time”.

As to `CN(C)CCC(c1cc2ccccc2s1)N1CCCCC1` (stereo not drawn) [VI-22, N,N-dimethyl-3-(benzothiophen-2-yl)-3-piperidinyl-propylamine], in the data set with male Kunming mice, the “effect in the forced swimming test (in words)” value is “significant reduction in the immobility time” and the “IT (sec), immobility time” value was determined as 75.4 ± 40.3 s. Moreover, at 5-HT Transporter (hSERT), the “inhibition effect towards the reuptake” value was “relatively strong inhibition effect” and the “5-HT Reuptake Inhibition” value stood at 96.3%. In addition, on NA Transporter (hNAT), the “NA Reuptake Inhibition” value stood at 99.8%. Moreover, on DA Transporter (hDAT), the “DA Reuptake Inhibition” value was found to be 96.5%. In the data set on male ICR mice, the “IT (sec), immobility time” value was determined as 65.25 ± 28.39 s and the “Improvement (%)” value worked out at 34.22%.

Regarding `CN(C)CCC(c1c[nH]c2ccccc12)N1CCOCC1` (stereo not drawn) [VI-31, N,N-dimethyl-3-(indol-3-yl)-3-morpholinyl-propylamine], in the data set with male Kunming mice, the “effect in the forced swimming test (in words)” value is on record as “significant difference from that of the blank control” and the “IT (sec), immobility time” value stood at 99.7 ± 43.7 s. For the same molecule, on 5-HT Transporter (hSERT), the “inhibition effect towards the reuptake” value is given as “relatively strong inhibition effect” and the “5-HT Reuptake Inhibition” value was determined as 87.9%. In addition, the “NA Reuptake Inhibition” value at NA Transporter (hNAT) is 88.1%. On DA Transporter (hDAT), the “DA Reuptake Inhibition” value stood at 75.6%. For the same molecule, in the data set on male ICR mice, the “IT (sec), immobility time” value came out at 78.36 ± 23.00 s and the “Improvement (%)” value stood at 20.84%.

`COc1ccc2cc(C(CCN(C)C)N3CCCC3)ccc2c1Cl` (stereo not drawn) [VI-36, N,N-dimethyl-3-(5-chloro-6-methoxynaphthalen-2-yl)-3-(pyrrolidin-1-yl)-propylamine]: the “effect in the forced swimming test (in words)” value in the data set with male Kunming mice was “significant difference from that of the blank control”. The “IT (sec), immobility time” value is 90.6 ± 48.0 s in the data set on male Kunming mice and 39.91 ± 18.35 s with male ICR mice. Further, the inhibition at 10 µM at 5-HT Transporter (hSERT) stood at 98.3%; on NA Transporter (hNAT) it was 97.8%; at DA Transporter (hDAT), 87.2%. The “Improvement (%)” value with male ICR mice came out at 59.29%. Moreover, the “effect on immobility time” value with male ICR mice (20 mg/kg) is “significant reduction in the immobility time”.

Take `CN(C)CCCC(c1csc2ccccc12)N1CCOCC1` (stereo not drawn) [VI-46, N,N-dimethyl-4-(benzothiophen-3-yl)-4-morpholinyl-butylamine]: in the data set with male Kunming mice, the “effect in the forced swimming test (in words)” value is “significant difference from that of the blank control” and the “IT (sec), immobility time” value stood at 97 ± 48.5 s. Also, at 5-HT Transporter (hSERT), the “inhibition effect towards the reuptake” value is “relatively strong inhibition effect” and the “5-HT Reuptake Inhibition” value was 92.3%. The “NA Reuptake Inhibition” value on NA Transporter (hNAT) amounted to 89.5%. Further, the “DA Reuptake Inhibition” value on DA Transporter (hDAT) came to 78.0%. In addition, in the data set with male ICR mice, the “IT (sec), immobility time” value amounted to 86.19 ± 35.87 s and the “Improvement (%)” value stood at 13.01%.

With `COc1ccc(C(CN(C)C)C2(O)CCCCC2)cc1` (stereo not drawn) [Venlafaxine, reference compound], the “IT (sec), immobility time” value in the data set on male Kunming mice was 77.4 ± 47.2 s. Besides, in the data set on rats (setting [3]), the “Incubation period of escape” value is given as 72.8 ± 77.26 s and the “Number of times of successful avoidance” value worked out at 19.4 ± 6.88. In addition, in the data set with rats (setting [4]), the “incubation period of escape (in words)” value is on record as “significantly shortened incubation period of escape” and the “times of successful avoidance (in words)” value is “relatively more times of successful avoidance”. For the same molecule, on NA Transporter (hNAT), the inhibition at 10 µM was 96.4%. Besides, on DA Transporter (hDAT), the inhibition at 10 µM worked out at 52.4%. In the data set on male ICR mice (20 mg/kg), the “immobility time” value stood at 36.97 ± 21.10 s. In the data set on male ICR mice, the “IT (sec), immobility time” value came out at 36.97 ± 21.10 s and the “Improvement (%)” value is given as 62.73%.
